As usually defined, the IC50 is the concentration that inhibits the measured activity by half. One may read the inhibition as the share of the control response that was lost under treatment.

In series [1] the test system is 3T3-L1 cells. The series is described as follows: Adipolysis assay (glycerol release) in 3T3-L1 cells. The series is classed as cell-based, Mouse. As to conditions: 10 μM, FIG. 3B; for isoproterenol-stimulated adipolysis: isoproterenol 100 nM for 24 hours. As to the method:
Mouse 3T3-L1 pre-adipocytes were cultured in Dulbecco's Modified Eagle's Medium (DMEM) supplemented with 10% fetal bovine serum, 100 units/ml penicillin and 100 μg/ml streptomycin at 37° C. in a humidified 95% air and 5% CO2 atmosphere. All cell culture reagents were purchased from Invitrogen (Carlsbad, Calif., USA). To initiate 3T3-L1 adipocyte differentiations, the standard differentiation cocktail (250 nM dexamethasone, 100 mM 3-isobutyl-1-methylxanthine and 175 nM human insulin, all purchased from Sigma, St. Louis, Mo.) was added to the medium after 2 days post-confluence. After 2 days, the medium was replaced with fresh complete medium containing insulin. Culture medium was changed every 2 days. Levofloxacin or benzbromarone (BBR) (Sigma, St. Louis, Mo.) was dissolved in DMSO and added to the medium at the beginning of pre-adipocyte differentiations. […] Confluent 3T3-L1 pre-adipocytes (day 0) were stimulated by the differentiation cocktail and cultured for 2 days with culture medium (Control), 10 μM of levofloxacin (Levofloxacin) or 10 μM benzbromarone (BBR). At day 2, the culture medium was collected and the extent of adipolysis was evaluated using Adipolysis Assay Kit (Cayman Chemical: 10009381, MI, US). During adipolysis, triglycerides are hydrolysed to release free fatty acids and glycerol. The amount of glycerol released into the medium as measured by the kit is proportional to the degree of adipolysis. Basal adipolysis and isoproterenol-induced adipolysis were studied. Isoproterenol was included as a positive control for screening pharmaceuticals that are known to regulate the adipolysis. Cells were treated with 100 nM of isoproterenol for 24 hours after the treatment with culture medium, levofloxacin or benzbromarone. Results were repeated at least three times from three independent experiments and presented as mean±SD, n=3 (FIG. 3B). The results were statistically analyzed by one-way ANOVA test. *, P<0.05; compared with the control group. #, P<0.05; compared with the isoproterenol-treated group.

Series [2] relates to 3T3-L1 cells. In words: Cell viability (MTT assay). It counts as cell-based, Mouse. As to conditions: 10 μM, regardless of the isoproterenol treatment, FIG. 3C. (Tetrazolium assays rely on reduction of a dye to a coloured formazan, in cell work by metabolically active cells.)
Series [3] has as its system 3T3-L1 cells. As to conditions: 10 μM, reference 31; cited from earlier work.
Series [4] addresses human FABP4 (Homo sapiens, UniProt P15090). In words: FABP4 Inhibitor/Ligand Screening Assay Kit, cell-free ligand displacement fluorescence-labeled probe assay. It counts as binding. As to conditions: for inhibition at 10 µM: read-out: % FABP4 inhibition (10 μM).
Series [5] concerns 3T3-L1 cells. The series is described as follows: Oil Red O staining (induction of adipogenesis). As to conditions: 10 μM, days 0-6 of differentiation, versus control group, FIG. 3D. It counts as cell-based, Mouse.
Series [6] relates to PPARγ. The series is described as follows: Western blot detection of PPARγ protein level in 3T3-L1 cells. It counts as cell-based, Mouse. As to conditions: 10 μM, Day 6, cell lysate, FIG. 3E. As to the method: Mouse 3T3-L1 pre-adipocytes were cultured in Dulbecco's Modified Eagle's Medium (DMEM) supplemented with 10% fetal bovine serum, 100 units/ml penicillin and 100 μg/ml streptomycin at 37° C. in a humidified 95% air and 5% CO2 atmosphere. All cell culture reagents were purchased from Invitrogen (Carlsbad, Calif., USA). To initiate 3T3-L1 adipocyte differentiations, the standard differentiation cocktail (250 nM dexamethasone, 100 mM 3-isobutyl-1-methylxanthine and 175 nM human insulin, all purchased from Sigma, St. Louis, Mo.) was added to the medium after 2 days post-confluence. After 2 days, the medium was replaced with fresh complete medium containing insulin. Culture medium was changed every 2 days. Levofloxacin or benzbromarone (BBR) (Sigma, St. Louis, Mo.) was dissolved in DMSO and added to the medium at the beginning of pre-adipocyte differentiations.
As in the above Oil Red O Staining assay, cells were harvested on Day 6 and the total protein was collected for western blotting to estimate the PPARγ protein level in the treated 3T3-L1 cells. […] Specific bands were detected using […] (BCIP) and nitro blue tetrazolium (NBT) system (Bio-Rad, Hercules, Calif.) and photographed (FIG. 3E). […]
For orientation: In western blotting, separated proteins are transferred to a membrane and probed.

Sequence of human FABP4 (P15090 whole entry): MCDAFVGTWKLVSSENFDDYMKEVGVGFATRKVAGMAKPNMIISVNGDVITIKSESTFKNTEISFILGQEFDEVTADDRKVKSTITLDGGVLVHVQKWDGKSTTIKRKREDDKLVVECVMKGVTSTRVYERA

Regarding `CCc1oc2ccccc2c1C(=O)c1cc(Br)c(O)c(Br)c1` [BBR, benzbromarone], in series [1], the basal adipolysis result is “inhibitory effects were also observed” and the isoproterenol-stimulated adipolysis entry is “inhibitory effects were also observed”. Also, the “proliferation/viability of 3T3-L1 cells (cytotoxicity)” value in series [2] is reported as “not affected”. Also, in series [3], the “adipolysis (literature report)” value is reported as “inhibits the adipolysis”.
Consider `C[C@H]1COc2c(N3CCN(C)CC3)c(F)cc3c(=O)c(C(=O)O)cn1c23` [Levofloxacin, (S)-9-fluoro-2,3-dihydro-3-methyl-10-(4-methylpiperazin-1-yl)-7-oxo-7H-pyrido[1,2,3-de]-1,4-benzoxazine-6-carboxylic acid], for which the IC50 in series [4] (dose-response, Prism 5, read-out: IC50 FABP4 activity inhibition) is 5.83 µM. The inhibition at 10 µM in series [4] was 70 ± 12.2%. Besides, in series [1], the basal adipolysis entry is “inhibited” and the isoproterenol-stimulated adipolysis entry was “inhibited”. Further, in series [2], the “proliferation/viability of 3T3-L1 cells (cytotoxicity)” value is reported as “not affected”. In addition, the “lipid accumulation (red dots, Oil Red O)” value in series [5] is listed as “did not promote lipid accumulation”. The “protein expression of PPARγ” value in series [6] is reported as “did not increase”.
Regarding `Cc1nc2n(c(=O)c1CCN1CCC(c3noc4cc(F)ccc34)CC1)CCCC2O` (stereo not drawn) [Paliperidone], the inhibition at 10 µM in series [4] worked out at 5.12 ± 6.9%.
The same measure, in the same setting: the value for `O=c1[nH]c2ccccc2n1C1CCN(CCCC(c2ccc(F)cc2)c2ccc(F)cc2)CC1` [Pimozide] was 47 ± 11.3%; that for `Cc1nc2n(c(=O)c1CCN1CCC(c3noc4cc(F)ccc34)CC1)CCCC2` [Risperidone] was 1.64 ± 12.9%; that for `N[C@@H]1[C@H]2CN(c3nc4c(cc3F)c(=O)c(C(=O)O)cn4-c3ccc(F)cc3F)C[C@@H]12` [Trovafloxacin] was 57.5 ± 12.2%.

The values are drawn from patent US9968616B2, “Discovery of FDA-approved drugs as inhibitors of fatty acid binding protein 4 using molecular docking screening” (The Chinese University of Hong Kong, priority 2014, dated 2018).
